Measurements published in patent publication US20080161232A1, “C5a Receptor Antagonist” (JERINI AG, priority 2005, published 2008).
pIC50: −log10 of the molar value. Positions of bridges follow the written chain, without caps; N, C: chain ends. Non-standard residues stand in square brackets, D forms with d. Residues, ends and D or L forms follow the SMILES beside them. *: point of attachment. Dihydroorotyl(S) = O=C1C[C@@H](C(=O)*)NC(=O)N1; Phe(3-Cl) = N[C@@H](Cc1cccc(Cl)c1)C(=O)O; Phe(4-F) = N[C@@H](Cc1ccc(F)cc1)C(=O)O; Bta = N[C@@H](Cc1csc2ccccc12)C(=O)O; Hyp = O=C(O)[C@@H]1C[C@@H](O)CN1; d(hLeu) = CC(C)CC[C@@H](N)C(=O)O; Cit = NC(=O)NCCC[C@H](N)C(=O)O; dCha = N[C@H](CC1CCCCC1)C(=O)O; Chg = N[C@H](C(=O)O)C1CCCCC1; hLeu = CC(C)CC[C@H](N)C(=O)O; Nle = CCCC[C@H](N)C(=O)O; Orn = NCCC[C@H](N)C(=O)O; Nva = CCC[C@H](N)C(=O)O; tBu = CC(C)(C)*

target: T1, human C5aR(CD88) (Homo sapiens, UniProt P21730); assay: Determination of the IC50 value in an enzyme release assay (functional assay, antagonistic activity); format: cell-based; conditions: activity (group)
T1 construct: expressed in transfected cells; host or cells: rat basophilic leukemia cells (RBL)
T1 sequence (P21730 1-350): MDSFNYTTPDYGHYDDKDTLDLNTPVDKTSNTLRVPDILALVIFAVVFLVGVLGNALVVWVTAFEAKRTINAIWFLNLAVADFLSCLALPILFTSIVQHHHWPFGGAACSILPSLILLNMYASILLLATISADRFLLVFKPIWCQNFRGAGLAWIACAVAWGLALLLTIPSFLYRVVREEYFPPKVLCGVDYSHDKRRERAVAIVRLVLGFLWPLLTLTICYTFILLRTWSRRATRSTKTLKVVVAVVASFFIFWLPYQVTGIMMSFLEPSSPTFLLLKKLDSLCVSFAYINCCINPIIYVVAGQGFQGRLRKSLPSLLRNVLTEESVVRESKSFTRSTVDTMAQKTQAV

SMILES | pIC50
CO[C@@H]1C[C@H]2C(=O)N[C@H](CCC(C)C)C(=O)N[C@@H](Cc3ccc(F)cc3)C(=O)N[C@@H](Cc3ccccc3)C(=O)NCCC[C@H](NC(=O)[C@@H](N)Cc3ccccc3)C(=O)N2C1 [Compound 355, H-Phe-[Orn-Hym-hle-Pff-Phe]] (H-F[Orn][Hyp](Me)[d(hLeu)][Phe(4-F)]F; lactam 2-C) | 6.70 to 7.30

same assay, conditions: antagonistic activity; IC50 group in enzyme release assay, RBL cells expressing human C5aR(CD88); read-out: activity (group)

SMILES | pIC50
CCCC[C@@H]1NC(=O)[C@H](Cc2ccc(F)cc2)NC(=O)[C@@H](CCC(C)C)NC(=O)[C@@H]2C[C@@H](O)CN2C(=O)[C@@H](NC(=O)[C@H](Cc2ccccc2)NC(=O)[C@@H]2CC(=O)NC(=O)N2)CCCNC1=O [Compound 347, Hoo-Phe-[Orn-Hyp-hle-Pff-Nle]] ({Dihydroorotyl(S)}-F[Orn][Hyp][d(hLeu)][Phe(4-F)][Nle]; lactam 2-C) | 6.70 to 7.30
CC(C)CC[C@@H](NC(=O)[C@@H]1CCCN1C(=O)[C@H](CCCNC(N)=O)NC(=O)[C@H](Cc1ccccc1)NC(=O)[C@@H]1CC(=O)NC(=O)N1)C(=O)N[C@@H](Cc1ccc(F)cc1)C(=O)N[C@@H](Cc1ccccc1)C(N)=O [Compound 348, Hoo-Phe-Cit-Pro-hle-Pff-Phe-NH2] ({Dihydroorotyl(S)}-F[Cit]P[d(hLeu)][Phe(4-F)]F-NH2) | 6.70 to 7.30
CC(C)CC[C@@H](NC(=O)[C@@H]1C[C@@H](O)CN1C(=O)[C@H](CCCN)NC(=O)[C@H](Cc1ccccc1)NC(=O)[C@@H]1CC(=O)NC(=O)N1)C(=O)N[C@@H](Cc1ccc(F)cc1)C(=O)N[C@@H](Cc1ccccc1)C(N)=O [Compound 349, Hoo-Phe-Orn-Hyp-hle-Pff-Phe-NH2] ({Dihydroorotyl(S)}-F[Orn][Hyp][d(hLeu)][Phe(4-F)]F-NH2) | 6.70 to 7.30
CC(C)CC[C@@H](NC(=O)[C@@H]1CCCN1C(=O)[C@H](CCCN)NC(=O)[C@H](Cc1ccccc1)NC(=O)[C@@H]1CC(=O)NC(=O)N1)C(=O)N[C@@H](Cc1csc2ccccc12)C(=O)N[C@@H](Cc1ccccc1)C(N)=O [Compound 350, Hoo-Phe-Orn-Pro-hle-Bta-Phe-NH2] ({Dihydroorotyl(S)}-F[Orn]P[d(hLeu)][Bta]F-NH2) | 7.30 to 7.70
CC(C)CC[C@@H](NC(=O)[C@@H]1CCCN1C(=O)[C@H](CCCN)NC(=O)[C@H](Cc1ccccc1)NC(=O)[C@@H]1CC(=O)NC(=O)N1)C(=O)N[C@@H](Cc1cccc(Cl)c1)C(=O)N[C@@H](Cc1ccccc1)C(N)=O [Compound 351, Hoo-Phe-Orn-Pro-hle-Mcf-Phe-NH2] ({Dihydroorotyl(S)}-F[Orn]P[d(hLeu)][Phe(3-Cl)]F-NH2) | 7.30 to 7.70
CC(C)CC[C@@H](NC(=O)[C@@H]1CCCN1C(=O)[C@H](CCCN)NC(=O)[C@H](Cc1ccccc1)NC(=O)[C@@H]1CC(=O)NC(=O)N1)C(=O)N[C@@H](Cc1ccc(F)cc1)C(=O)N[C@@H](Cc1ccccc1)C(N)=O [Compound 352, Hoo-Phe-Orn-Pro-hle-Pff-Phe-NH2] ({Dihydroorotyl(S)}-F[Orn]P[d(hLeu)][Phe(4-F)]F-NH2) | 7.30 to 7.70
CCCC[C@@H]1NC(=O)[C@H](Cc2ccc(F)cc2)NC(=O)[C@@H](CCC(C)C)NC(=O)[C@@H]2C[C@@H](O)CN2C(=O)[C@@H](NC(=O)[C@@H](N)Cc2ccccc2)CCCCNC1=O [Compound 353, H-Phe-[Lys-Hyp-hle-Pff-Nle]] (H-FK[Hyp][d(hLeu)][Phe(4-F)][Nle]; lactam 2-C) | 6.70 to 7.30
CCCC[C@@H]1NC(=O)[C@H](Cc2cccc(Cl)c2)NC(=O)[C@@H](CCC(C)C)NC(=O)[C@@H]2C[C@@H](OC)CN2C(=O)[C@@H](NC(=O)[C@@H](N)Cc2ccccc2)CCCNC1=O [Compound 354, H-Phe-[Orn-Hym-hle-Mcf-Nle]] (H-F[Orn][Hyp](Me)[d(hLeu)][Phe(3-Cl)][Nle]; lactam 2-C) | 6.70 to 7.30
CCCC[C@@H]1NC(=O)[C@H](Cc2c[nH]c3ccccc23)NC(=O)[C@@H](CC2CCCCC2)NC(=O)[C@@H]2C[C@@H](O)CN2C(=O)[C@@H](NC(=O)[C@@H](N)Cc2ccccc2)CCCNC1=O [Compound 356, H-Phe-[Orn-Hyp-cha-Trp-Nle]] (H-F[Orn][Hyp][dCha]W[Nle]; lactam 2-C) | 7.30 to 7.70
N[C@@H](Cc1ccccc1)C(=O)N[C@H]1CCCNC(=O)[C@H](Cc2ccccc2)NC(=O)[C@H](Cc2c[nH]c3ccccc23)NC(=O)[C@@H](CC2CCCCC2)NC(=O)[C@@H]2C[C@@H](O)CN2C1=O [Compound 357, H-Phe-[Orn-Hyp-cha-Trp-Phe]] (H-F[Orn][Hyp][dCha]WF; lactam 2-C) | 7.30 to 7.70
CCCC[C@@H]1NC(=O)[C@H](Cc2ccc(F)cc2)NC(=O)[C@@H](CSC(C)(C)C)NC(=O)[C@@H]2C[C@@H](O)CN2C(=O)[C@@H](NC(=O)[C@@H](N)Cc2ccccc2)CCCNC1=O [Compound 358, H-Phe-[Orn-Hyp-ctb-Pff-Nle]] (H-F[Orn][Hyp][dC](tBu)[Phe(4-F)][Nle]; lactam 2-C) | 6.70 to 7.30
CCCC[C@@H]1NC(=O)[C@H](Cc2c[nH]c3ccccc23)NC(=O)[C@@H](CSC(C)(C)C)NC(=O)[C@@H]2C[C@@H](O)CN2C(=O)[C@@H](NC(=O)[C@@H](N)Cc2ccccc2)CCCNC1=O [Compound 359, H-Phe-[Orn-Hyp-ctb-Trp-Nle]] (H-F[Orn][Hyp][dC](tBu)W[Nle]; lactam 2-C) | 7.30 to 7.70
CC(C)(C)SC[C@H]1NC(=O)[C@@H]2C[C@@H](O)CN2C(=O)[C@@H](NC(=O)[C@@H](N)Cc2ccccc2)CCCNC(=O)[C@H](Cc2ccccc2)NC(=O)[C@H](Cc2c[nH]c3ccccc23)NC1=O [Compound 360, H-Phe-[Orn-Hyp-ctb-Trp-Phe]] (H-F[Orn][Hyp][dC](tBu)WF; lactam 2-C) | 7.30 to 7.70
CC(C)CC[C@H]1NC(=O)[C@@H]2C[C@@H](O)CN2C(=O)[C@@H](NC(=O)[C@@H](N)Cc2ccccc2)CCCNC(=O)[C@H](CC(C)C)NC(=O)[C@H](Cc2cccc(Cl)c2)NC1=O [Compound 361, H-Phe-[Orn-Hyp-hle-Mcf-Leu]] (H-F[Orn][Hyp][d(hLeu)][Phe(3-Cl)]L; lactam 2-C) | 6.70 to 7.30
CC(C)CC[C@H]1NC(=O)[C@@H]2C[C@@H](O)CN2C(=O)[C@@H](NC(=O)[C@@H](N)Cc2ccccc2)CCCNC(=O)[C@H](C2CCCCC2)NC(=O)[C@H](Cc2ccc(F)cc2)NC1=O [Compound 362, H-Phe-[Orn-Hyp-hle-Pff-Chg]] (H-F[Orn][Hyp][d(hLeu)][Phe(4-F)][Chg]; lactam 2-C) | 6.70 to 7.30
CC(C)CC[C@@H]1NC(=O)[C@H](Cc2ccc(F)cc2)NC(=O)[C@@H](CCC(C)C)NC(=O)[C@@H]2C[C@@H](O)CN2C(=O)[C@@H](NC(=O)[C@@H](N)Cc2ccccc2)CCCNC1=O [Compound 363, H-Phe-[Orn-Hyp-hle-Pff-Hle]] (H-F[Orn][Hyp][d(hLeu)][Phe(4-F)][hLeu]; lactam 2-C) | 6.70 to 7.30
CC(C)CC[C@H]1NC(=O)[C@@H]2C[C@@H](O)CN2C(=O)[C@@H](NC(=O)[C@@H](N)Cc2ccccc2)CCCNC(=O)[C@H](CC(C)C)NC(=O)[C@H](Cc2ccc(F)cc2)NC1=O [Compound 364, H-Phe-[Orn-Hyp-hle-Pff-Leu]] (H-F[Orn][Hyp][d(hLeu)][Phe(4-F)]L; lactam 2-C) | 6.70 to 7.30
CCCC[C@@H]1NC(=O)[C@H](Cc2ccc(F)cc2)NC(=O)[C@@H](CCC(C)C)NC(=O)[C@@H]2C[C@@H](O)CN2C(=O)[C@@H](NC(=O)[C@@H](N)Cc2ccccc2)CCCNC1=O [Compound 365, H-Phe-[Orn-Hyp-hle-Pff-Nle]] (H-F[Orn][Hyp][d(hLeu)][Phe(4-F)][Nle]; lactam 2-C) | 6.70 to 7.30
CC(C)CC[C@H]1NC(=O)[C@@H]2C[C@@H](O)CN2C(=O)[C@@H](NC(=O)[C@@H](N)Cc2ccccc2)CCCNC(=O)[C@H](Cc2ccccc2)NC(=O)[C@H](Cc2ccc(F)cc2)NC1=O [Compound 366, H-Phe-[Orn-Hyp-hle-Pff-Phe]] (H-F[Orn][Hyp][d(hLeu)][Phe(4-F)]F; lactam 2-C) | 6.70 to 7.30
CC(C)CC[C@@H]1NC(=O)[C@H](Cc2c[nH]c3ccccc23)NC(=O)[C@@H](CCC(C)C)NC(=O)[C@@H]2C[C@@H](O)CN2C(=O)[C@@H](NC(=O)[C@@H](N)Cc2ccccc2)CCCNC1=O [Compound 367, H-Phe-[Orn-Hyp-hle-Trp-Hle]] (H-F[Orn][Hyp][d(hLeu)]W[hLeu]; lactam 2-C) | 6.70 to 7.30
CC(C)CC[C@H]1NC(=O)[C@@H]2C[C@@H](O)CN2C(=O)[C@@H](NC(=O)[C@@H](N)Cc2ccccc2)CCCNC(=O)[C@H](CC(C)C)NC(=O)[C@H](Cc2c[nH]c3ccccc23)NC1=O [Compound 368, H-Phe-[Orn-Hyp-hle-Trp-Leu]] (H-F[Orn][Hyp][d(hLeu)]WL; lactam 2-C) | 7.30 to 7.70
CCCC[C@@H]1NC(=O)[C@H](Cc2c[nH]c3ccccc23)NC(=O)[C@@H](CCC(C)C)NC(=O)[C@@H]2C[C@@H](O)CN2C(=O)[C@@H](NC(=O)[C@@H](N)Cc2ccccc2)CCCNC1=O [Compound 369, H-Phe-[Orn-Hyp-hle-Trp-Nle]] (H-F[Orn][Hyp][d(hLeu)]W[Nle]; lactam 2-C) | 7.30 to 7.70
CCC[C@@H]1NC(=O)[C@H](Cc2c[nH]c3ccccc23)NC(=O)[C@@H](CCC(C)C)NC(=O)[C@@H]2C[C@@H](O)CN2C(=O)[C@@H](NC(=O)[C@@H](N)Cc2ccccc2)CCCNC1=O [Compound 370, H-Phe-[Orn-Hyp-hle-Trp-Nva]] (H-F[Orn][Hyp][d(hLeu)]W[Nva]; lactam 2-C) | 6.70 to 7.30
CC(C)CC[C@H]1NC(=O)[C@@H]2C[C@@H](O)CN2C(=O)[C@@H](NC(=O)[C@@H](N)Cc2ccccc2)CCCNC(=O)[C@H](Cc2ccccc2)NC(=O)[C@H](Cc2c[nH]c3ccccc23)NC1=O [Compound 371, H-Phe-[Orn-Hyp-hle-Trp-Phe]] (H-F[Orn][Hyp][d(hLeu)]WF; lactam 2-C) | 7.30 to 7.70
